The values that follow come from publication PMC11821258 (Molecules, 2025).

Structures are written as SMILES.

For the first experiment, the system named is human biphenotypic B myelomonocytic leukemia MV4-11. The experiment is described as follows: Antiproliferative activity, MTT assay, 72 h. The class given is cell-based. Particulars: Homo sapiens; MV4-11, 72 h, MTT; read-out: IC50. On the procedure: (§1) The tested compounds were dissolved in DMSO (dimethyl sulfoxide) to a concentration of 10 mg/mL and then were diluted in the culture medium to reach the final concentrations. The cells were plated in 384-well plates at a density of 1 × 10^3 or 2 × 10^3 (MCF-10A) cells per well (Greiner Bio One, Kremsmünster, Austria) and in 96-well plates (MV4-11 cell; Sarstedt, Nümbrecht, Germany) at a density of 5 × 10^3 cells per well. After 24 h of incubation, the tested compounds were added at concentrations in the range of 100–0.03 µg/mL and, after the next 72 h of exposure to tested agents, the cytotoxic effect of all agents was examined using the MTT (MV4-11) or SRB assay, described previously. The values of IC50 (inhibitory concentration 50%) were calculated separately for each experiment (repeated 3–5 times) using the Prolab-3 system which is based on Cheburator 0.4 software. Doxorubicin was applied as a reference drug. The IC50 values in µg/mL were calculated to µM.
This assay was used against MV4-11 leukemia cells and was performed after 72 h of exposure of the tested agents to the cells. For each well, 20 µL of the MTT [3-(4,5-dimethylthiazol-2-yl)-2,5-diphenyl tetrazolium bromide] solution (5 mg/mL, Merck, Darmstadt, Germany) was added. After the incubation time (4 h at 37 °C), 80 µL of the lysing buffer was added to each well (mixture of 225 mL of DMF (dimethylformamide) Avantor, Poland; 67.5 g of SDS, Merck, Darmstadt, Germany; and 275 mL of distilled water). After the next 24 h, the absorbance of the samples was measured at a 570 nm wavelength on a Synergy H4 photometer (BioTek Instruments, Winooski, VT, USA). The absorbance of wells without the cells was the background.
For `C=C(C)[C@@H]1CC[C@]2(CO)CC[C@]3(C)[C@H](CC[C@@H]4[C@@]5(C)CC[C@H](O)C(C)(C)[C@@H]5CC[C@]43C)[C@@H]12` [B, betulin, reference compound], the IC50 turned out to be 32.8 ± 12.9 µM.

The next experiment concerns human breast cancer MCF-7. The experiment is described as follows: Antiproliferative activity, SRB assay, 72 h. It is filed as cell-based. As to conditions: Homo sapiens, MCF7; MCF-7, 72 h, SRB; read-out: IC50. As to the method:
as §1
(§2) The cytotoxicity assay was performed after the cultured cells were exposed to the tested agents for 72 h using the authomatic Washer dyspenser EL406, BioTek. At the first step, the washer dispenser collected 40 µL of cultured medium from each wells, and then the cells were fixed by gently layering 20 µL per well of cold 25% trichloroacetic acid to each well. The incubation time was 40 min and then the plates were washed with tap water. The cells were stained with 20 µL per well of 0.1% sulforhodamine B (SRB, Merck, Darmstadt, Germany) for 30 min. Unbound sulforhodamine B was removed by washing it with 1% acetic acid. The protein-bound dye was extracted in 30 min using 70 µL per well of 10 mM unbuffered Tris base (Merck, Darmstadt, Germany). The absorbance (at 540 nm) was measured on a Synergy H4 photometer (BioTek Instruments, Winooski, VT, USA). The absorbance of the wells without the cells was the background.
A general note: Sulforhodamine B stains cellular protein and so reports cell mass.
For `C=C(C)[C@@H]1CC[C@]2(CO)CC[C@]3(C)[C@H](CC[C@@H]4[C@@]5(C)CC[C@H](O)C(C)(C)[C@@H]5CC[C@]43C)[C@@H]12` [B, betulin, reference compound], the IC50 stood at 43.6 ± 15.8 µM.

The subject of the next experiment is human colon cancer HCT116 cells. The experiment can be described thus: Antiproliferative activity, SRB assay, 72 h. The class given is cell-based. As to conditions: Homo sapiens, HCT-116; HCT116, 72 h, SRB; read-out: IC50. As to the method:
as §1, §2
As to `C=C(C)[C@@H]1CC[C@]2(CO)CC[C@]3(C)[C@H](CC[C@@H]4[C@@]5(C)CC[C@H](O)C(C)(C)[C@@H]5CC[C@]43C)[C@@H]12` [B, betulin, reference compound], the IC50 was determined as 37.7 ± 7.45 µM.

Another experiment deals with human lung carcinoma A549. The experiment can be described thus: Antiproliferative activity, SRB assay, 72 h. As to conditions: Homo sapiens; A549, 72 h, SRB; read-out: IC50. It is filed as cell-based. On the procedure: as §1, §2
With `C=C(C)[C@@H]1CC[C@]2(CO)CC[C@]3(C)[C@H](CC[C@@H]4[C@@]5(C)CC[C@H](O)C(C)(C)[C@@H]5CC[C@]43C)[C@@H]12` [B, betulin, reference compound], the IC50 came to 14 ± 1.13 µM.

Still in this experiment, the particulars now being: IC50 MCF-10A / IC50 A549.
Regarding `C=C(C)[C@@H]1CC[C@]2(CO)CC[C@]3(C)[C@H](CC[C@@H]4[C@@]5(C)CC[C@H](O)C(C)(C)[C@@H]5CC[C@]43C)[C@@H]12` [B, betulin, reference compound], the SI worked out at 7.03.

A further experiment concerns human melanoma Hs294T cells. The experiment can be described thus: Antiproliferative activity, SRB assay, 72 h. The class given is cell-based. Particulars: Homo sapiens, Hs 294T; Hs249T (so in the source), 72 h, SRB; read-out: IC50. On the procedure: as §1, §2
As to `C=C(C)[C@@H]1CC[C@]2(CO)CC[C@]3(C)[C@H](CC[C@@H]4[C@@]5(C)CC[C@H](O)C(C)(C)[C@@H]5CC[C@]43C)[C@@H]12` [B, betulin, reference compound], the IC50 amounted to 58.5 ± 15.6 µM.

The experiment is the same for the next values; noted with them: IC50 MCF-10A / IC50 Hs249T (so in the source).
In the case of `C=C(C)[C@@H]1CC[C@]2(CO)CC[C@]3(C)[C@H](CC[C@@H]4[C@@]5(C)CC[C@H](O)C(C)(C)[C@@H]5CC[C@]43C)[C@@H]12` [B, betulin, reference compound], the SI turned out to be 1.68.

The subject of a further experiment is human pancreas cancer MiaPaca-2 cells. The experiment can be described thus: Antiproliferative activity, SRB assay, 72 h. The class given is cell-based. As to conditions: Homo sapiens, MIA PaCa-2; MiaPaca-1 (so in the source), 72 h, SRB; read-out: IC50. On the procedure:
as §1, §2
In the case of `C=C(C)[C@@H]1CC[C@]2(CO)CC[C@]3(C)[C@H](CC[C@@H]4[C@@]5(C)CC[C@H](O)C(C)(C)[C@@H]5CC[C@]43C)[C@@H]12` [B, betulin, reference compound], the IC50 is 144 ± 22.1 µM.

The same experiment, now with this note: IC50 MCF-10A / IC50 MiaPaca-1 (so in the source).
For `C=C(C)[C@@H]1CC[C@]2(CO)CC[C@]3(C)[C@H](CC[C@@H]4[C@@]5(C)CC[C@H](O)C(C)(C)[C@@H]5CC[C@]43C)[C@@H]12` [B, betulin, reference compound], the SI was 0.68.

In a further experiment the test system is human prostate adenocarcinoma PC-3. The experiment is described as follows: Antiproliferative activity, SRB assay, 72 h. It is filed as cell-based. As to conditions: Homo sapiens; PC-3, 72 h, SRB; read-out: IC50. As to the method:
as §1, §2
For the compound `C=C(C)[C@@H]1CC[C@]2(CO)CC[C@]3(C)[C@H](CC[C@@H]4[C@@]5(C)CC[C@H](O)C(C)(C)[C@@H]5CC[C@]43C)[C@@H]12` [B, betulin, reference compound], the IC50 stood at 51.5 ± 9.94 µM.

A further experiment deals with human normal epithelial cells from the mammary gland (MCF-10A). The experiment can be described thus: Cytotoxicity on non-tumorigenic cells, SRB assay, 72 h. Particulars: Homo sapiens, MCF-10A normal cells, SRB, read-out: IC50. The class given is cell-based. On the procedure: as §1, §2
For the compound `C=C(C)[C@@H]1CC[C@]2(CO)CC[C@]3(C)[C@H](CC[C@@H]4[C@@]5(C)CC[C@H](O)C(C)(C)[C@@H]5CC[C@]43C)[C@@H]12` [B, betulin, reference compound], the IC50 is 98.48 ± 0.9 µM.

A further experiment deals with tested cell lines (MV4-11, A549, MCF-7, PC-3, HCT116, MiaPaca-2, Hs294T). The experiment is described as follows: Antiproliferative activity, range over the tested cell lines. It is filed as cell-based. As to conditions: Homo sapiens; range across cell lines, 72 h. As to the method: as §1, with “The values of IC50 (inhibitory concentration 50%) were calculated separately for each experiment (repeated 3–5 times) using the Prolab-3 system which is based on Cheburator 0.4 software. Doxorubicin was applied as a reference drug.” left out
This assay was used against MV4-11 leukemia cells and was performed after 72 h of exposure of the tested agents to the cells. […] After the next 24 h, the absorbance of the samples was measured at a 570 nm wavelength on a Synergy H4 photometer (BioTek Instruments, Winooski, VT, USA). The absorbance of wells without the cells was the background.
The cytotoxicity assay was performed after the cultured cells were exposed to the tested agents for 72 h using the authomatic Washer dyspenser EL406, BioTek. […] The absorbance (at 540 nm) was measured on a Synergy H4 photometer (BioTek Instruments, Winooski, VT, USA). […]
Regarding `C=C(C)[C@@H]1CC[C@]2(CO)CC[C@]3(C)[C@H](CC[C@@H]4[C@@]5(C)CC[C@H](O)C(C)(C)[C@@H]5CC[C@]43C)[C@@H]12` [B, betulin, reference compound], the IC50 lay in the range of 14 to 144 µM.

For another experiment, the system named is MV4-11 cells. The experiment can be described thus: Cell cycle analysis by flow cytometry (propidium iodide). The class given is cell-based, human. Particulars: MV4-11, 24 h, about 1.5 × IC50. As to the method: After incubation, the cells were collected and counted with a hemocytometer, and the 5×10^5 cells were washed twice in cold PBS (phosphate-buffered saline) and fixed for 24 h in 70% ethanol at −20 °C. Then, the cells were washed twice in PBS and incubated with 0.5 mL of RNAse (8 μg/mL, Thermo Fisher, Waltham, MA, USA) at 37 °C for 1 h. The cells were stained for 30 min with propidium iodide (final concentration: 50 μg/mL, Merck, Darmstadt, Germany) at 4 °C and the cellular DNA content was analyzed by conducting flow cytometry using a BD LSRFortessa cytometer (BD Bioscience, San Jose, CA, USA). Compounds at each concentration were tested at least three times independently. The obtained results were analyzed using Flowing software 2.5.1 (Cell Imaging Core, Turku Centre for Biotechnology, University of Turku and Åbo Akademi University, Finland).
Regarding `C=C(C)[C@@H]1CC[C@]2(CO)CC[C@]3(C)[C@H](CC[C@@H]4[C@@]5(C)CC[C@H](O)C(C)(C)[C@@H]5CC[C@]43C)[C@@H]12` [B, betulin, reference compound], the “number of cells in the S and G0/G1 phases” value is “lowered”.

The same experiment, now with this note: MV4-11, 24 h, about 1.5 × IC50, statistically significant.
Take `C=C(C)[C@@H]1CC[C@]2(CO)CC[C@]3(C)[C@H](CC[C@@H]4[C@@]5(C)CC[C@H](O)C(C)(C)[C@@H]5CC[C@]43C)[C@@H]12` [B, betulin, reference compound]: the “number of cells in the G2/M phase” value is recorded as “lowered”.

As usually defined, the IC50 is the concentration needed to halve the response being measured.
